Publication PMC2982820, “Characterisation of PduS, the pdu Metabolosome Corrin Reductase, and Evidence of Substructural Organisation within the Bacterial Microcompartment” (PLoS ONE, 2010)

T1: PduS (Citrobacter freundii, UniProt B1VB77)
T1 construct: full length, N-terminal hexa-His tag (pET14b, pJP024; template pAR3114), E. coli BL21(DE3)pLysS; FMN and two [4Fe-4S] when purified anaerobically
T1 sequence (B1VB77 1-451): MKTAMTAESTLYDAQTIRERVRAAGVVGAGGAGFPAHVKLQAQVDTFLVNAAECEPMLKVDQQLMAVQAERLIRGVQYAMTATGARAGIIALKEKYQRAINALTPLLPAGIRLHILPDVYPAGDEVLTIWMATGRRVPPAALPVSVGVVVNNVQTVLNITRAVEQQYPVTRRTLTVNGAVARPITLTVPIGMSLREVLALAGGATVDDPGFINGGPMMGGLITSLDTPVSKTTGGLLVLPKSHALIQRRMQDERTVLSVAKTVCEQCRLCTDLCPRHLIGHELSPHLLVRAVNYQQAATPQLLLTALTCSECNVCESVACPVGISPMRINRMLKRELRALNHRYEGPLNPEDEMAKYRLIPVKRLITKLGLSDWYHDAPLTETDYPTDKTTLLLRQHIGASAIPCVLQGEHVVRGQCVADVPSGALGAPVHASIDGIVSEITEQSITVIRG

B1: PduS (Citrobacter freundii) (protein)
chain: T1 sequence (B1VB77 1-451)
notes: full length, N-terminal hexa-His tag (pET14b, pJP024; template pAR3114), E. coli BL21(DE3)pLysS; FMN and two [4Fe-4S] when purified anaerobically

Legend:
[1] = biological target: T1, PduS; assay: heat release of bound flavin, RP-HPLC-MS against FMN and FAD standards; type: binding; conditions: non-covalently bound, co-purified
[2] = substrate: NC(=O)C1=CN([C@@H]2O[C@H](COP(=O)(O)OP(=O)(O)OC[C@H]3O[C@@H](n4cnc5c(N)ncnc54)[C@H](O)[C@@H]3O)[C@@H](O)[C@H]2O)C=CC1; assay: purified protein; type: biochemical, Citrobacter freundii; conditions: cob(III)alamin as co-substrate, 20 mM Tris-HCl pH 8.0, 37 °C, anaerobic

| Molecule | heat release of bound flavin, RP-HPLC-MS against FMN and FAD standards [1] | Km [2] [µM] |
| --- | --- | --- |
| Cc1cc2nc3c(=O)[nH]c(=O)nc-3n(C[C@H](O)[C@H](O)[C@H](O)COP(=O)(O)O)c2cc1C [FMN] | flavin extracted from PduS was found to have a retention time identical to authentic FMN | – |
| B1 | – | 24.7 |
